This passage reports viscosity and mass density results from the NIST ThermoML archive (doi:10.1021/je800348s).

± gives the expanded uncertainty stated by the source.

The conditions of data set [1]: 101 kPa, Liquid; for mass density: Vibrating tube method.
Data set [2] in a line: xn = mol fraction of the nth substance listed. The following applies: 101 kPa, Liquid, x1 = 1; for mass density: Vibrating tube method.

Consider `CCCCCCCCCC` [decane], for which the viscosity (in general, the resistance of a fluid to flow) in data set [1] (293.15 K) was 0.9491 ± 0.024 mPa·s; in data set [1] (298.15 K), 0.8434 ± 0.022 mPa·s; in data set [1] (303.15 K), 0.8172 ± 0.021 mPa·s; in data set [1] (313.15 K), 0.7851 ± 0.02 mPa·s. In addition, the mass density (in general, mass per unit of volume) is 730 ± 8 kg/m3 in data set [1] (293.15 K), 726.4 ± 8 kg/m3 in data set [1] (298.15 K), 722.5 ± 8 kg/m3 in data set [1] (303.15 K) and 715.4 ± 8 kg/m3 in data set [1] (313.15 K).

With `CCCCCCCCCC` [decane] + C1C[C@@H]2[C@H]3CC[C@H](C3)[C@@H]2C1, the mass density worked out at 730 ± 8 kg/m3 in data set [2] (293.15 K), 726.4 ± 8 kg/m3 in data set [2] (298.15 K), 722.5 ± 8 kg/m3 in data set [2] (303.15 K) and 715.4 ± 8 kg/m3 in data set [2] (313.15 K). In addition, the viscosity is recorded as 0.9491 ± 0.024 mPa·s in data set [2] (293.15 K), 0.8434 ± 0.022 mPa·s in data set [2] (298.15 K), 0.8172 ± 0.021 mPa·s in data set [2] (303.15 K) and 0.7851 ± 0.02 mPa·s in data set [2] (313.15 K).

On to `C1C[C@@H]2[C@H]3CC[C@H](C3)[C@@H]2C1` [exo-tetrahydrodicyclopentadiene], for which the viscosity in data set [1] (293.15 K) amounted to 3.064 ± 0.077 mPa·s; in data set [1] (298.15 K), 2.74 ± 0.069 mPa·s; in data set [1] (303.15 K), 2.514 ± 0.063 mPa·s; in data set [1] (313.15 K), 2.27 ± 0.057 mPa·s. In addition, the mass density stood at 935.2 ± 8 kg/m3 in data set [1] (293.15 K), 931.4 ± 8 kg/m3 in data set [1] (298.15 K), 927.7 ± 8 kg/m3 in data set [1] (303.15 K) and 922.2 ± 8 kg/m3 in data set [1] (313.15 K).

With `CCCCCCCC` [octane], the viscosity worked out at 0.5439 ± 0.015 mPa·s in data set [1] (293.15 K), 0.5177 ± 0.015 mPa·s in data set [1] (298.15 K), 0.4795 ± 0.014 mPa·s in data set [1] (303.15 K) and 0.4358 ± 0.013 mPa·s in data set [1] (313.15 K). Further, the mass density in data set [1] (293.15 K) amounted to 702.5 ± 8 kg/m3; in data set [1] (298.15 K) it was 698.5 ± 8 kg/m3; in data set [1] (303.15 K), 694.5 ± 8 kg/m3; in data set [1] (313.15 K) it was 686.3 ± 8 kg/m3.

For the molecule `CCCCCCCC` [octane] + C1C[C@@H]2[C@H]3CC[C@H](C3)[C@@H]2C1, the mass density in data set [2] (293.15 K) was 702.5 ± 8 kg/m3; in data set [2] (298.15 K), 698.5 ± 8 kg/m3; in data set [2] (303.15 K), 694.5 ± 8 kg/m3; in data set [2] (313.15 K) it was 686.3 ± 8 kg/m3. Further, the viscosity amounted to 0.5439 ± 0.015 mPa·s in data set [2] (293.15 K), 0.5177 ± 0.015 mPa·s in data set [2] (298.15 K), 0.4795 ± 0.014 mPa·s in data set [2] (303.15 K) and 0.4358 ± 0.013 mPa·s in data set [2] (313.15 K).
